# Test results: patent US9868772B2 (INDIANA UNIVERSITY RESEARCH AND TECHNOLOGY CORPORATION, priority 2012, dated 2018)
# Numbered stars: 1 amine (or outer) side, 2 acyl side, 3 side chain; on linkers, the order of the positions; unused ones are H or OH. Square brackets hold non-standard residues; d marks the D form. Side chains are listed from the residue outwards. Peptide text beside a SMILES is read from it. * marks the point of attachment. γGlu = O=C(O)[C@H](CCC(=O)[*:2])N[*:1]; Desaminohistidyl = O=C(CCc1c[nH]cn1)*; Palmitoyl = CCCCCCCCCCCCCCCC(=O)*; βAla = NCCC(=O)O
# Columns and labels:
# Experiment in all cases: cAMP induction, firefly luciferase reporter assay in HEK293 cells co-transfected with receptor
# Type in all cases: cell-based
# GIP receptor = biological target: T1, GIP receptor (Homo sapiens, UniProt P48546)
# T1 construct: expressed in transfected cells; host or cells: HEK293
# T1 sequence (P48546 22-466): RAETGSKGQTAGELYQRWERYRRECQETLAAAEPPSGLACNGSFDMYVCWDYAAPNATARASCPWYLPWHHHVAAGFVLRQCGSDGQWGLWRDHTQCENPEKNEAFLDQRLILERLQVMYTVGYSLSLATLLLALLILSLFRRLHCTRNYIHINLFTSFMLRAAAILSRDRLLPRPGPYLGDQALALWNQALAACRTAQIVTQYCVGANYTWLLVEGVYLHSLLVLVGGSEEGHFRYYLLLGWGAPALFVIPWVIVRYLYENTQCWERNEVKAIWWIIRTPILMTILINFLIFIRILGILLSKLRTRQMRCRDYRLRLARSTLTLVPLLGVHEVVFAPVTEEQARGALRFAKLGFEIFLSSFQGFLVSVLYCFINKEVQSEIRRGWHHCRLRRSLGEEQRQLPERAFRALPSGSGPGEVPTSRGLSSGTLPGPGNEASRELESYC
# Experimental: (§1) The ability of glucagon analogs to induce cAMP was measured in a firefly luciferase-based reporter assay. […] At the end of the incubation 100 microliters of LucLite luminescence substrate reagent (Perkin-Elmer, Wellesley, Mass.) were added to each well. […] Effective 50% concentrations were calculated by using Origin software (OriginLab, Northampton, Mass.
# GLP-1 receptor = biological target: T2, GLP-1 receptor (Homo sapiens, UniProt P43220)
# T2 construct: expressed in transfected cells; host or cells: HEK293
# Experimental: as §1
# glucagon receptor = biological target: T3, glucagon receptor (Homo sapiens, UniProt P47871)
# T3 construct: expressed in transfected cells; host or cells: HEK293
# Experimental: as §1
# [1] = Table 3, analogs of SEQ ID NO: 12
# [2] = Table 1, analogs of SEQ ID NO: 37
# [3] = Table 2, analogs of SEQ ID NO: 10
# T2 sequence (P43220 24-463): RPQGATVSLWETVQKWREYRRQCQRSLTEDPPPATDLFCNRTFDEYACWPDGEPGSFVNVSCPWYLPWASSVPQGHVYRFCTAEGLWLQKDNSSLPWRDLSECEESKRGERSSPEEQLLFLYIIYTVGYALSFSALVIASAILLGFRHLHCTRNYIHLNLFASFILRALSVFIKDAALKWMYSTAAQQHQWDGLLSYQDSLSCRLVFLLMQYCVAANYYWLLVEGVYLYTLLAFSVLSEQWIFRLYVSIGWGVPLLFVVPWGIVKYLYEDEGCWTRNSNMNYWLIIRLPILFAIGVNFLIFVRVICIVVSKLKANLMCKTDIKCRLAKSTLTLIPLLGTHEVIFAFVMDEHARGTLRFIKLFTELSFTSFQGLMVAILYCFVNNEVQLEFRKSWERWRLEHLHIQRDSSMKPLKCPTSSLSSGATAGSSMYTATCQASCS
# T3 sequence (P47871 26-477): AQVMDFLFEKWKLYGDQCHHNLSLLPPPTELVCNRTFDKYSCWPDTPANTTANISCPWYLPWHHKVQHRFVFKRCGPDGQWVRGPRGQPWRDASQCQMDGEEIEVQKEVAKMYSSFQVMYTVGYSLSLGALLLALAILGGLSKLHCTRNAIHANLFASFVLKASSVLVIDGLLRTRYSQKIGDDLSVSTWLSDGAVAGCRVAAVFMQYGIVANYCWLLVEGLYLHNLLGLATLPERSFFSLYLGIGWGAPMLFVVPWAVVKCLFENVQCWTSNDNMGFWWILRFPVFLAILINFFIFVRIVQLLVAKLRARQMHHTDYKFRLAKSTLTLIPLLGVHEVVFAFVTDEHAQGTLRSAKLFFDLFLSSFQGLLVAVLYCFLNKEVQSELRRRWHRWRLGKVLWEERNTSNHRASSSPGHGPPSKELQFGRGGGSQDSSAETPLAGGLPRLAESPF
structure (smiles),measurement,setting,value
CCCCCCCCCCCCCCCC(=O)N[C@@H](CCC(=O)NCCCC[C@H](NC(=O)[C@H](CC(=O)O)NC(=O)[C@H](CO)NC(=O)[C@@H](NC(=O)[C@H](Cc1ccccc1)NC(=O)[C@@H](NC(=O)CNC(=O)[C@H](CCC(N)=O)NC(=O)[C@H](C)NC(=O)[C@@H](Cc1ccc(O)cc1)NC(C)=O)[C@@H](C)O)[C@@H](C)O)C(=O)N[C@@H](CO)C(=O)N[C@@H](CCCCN)C(=O)N[C@@H](Cc1ccc(O)cc1)C(=O)N[C@@H](CC(C)C)C(=O)N[C@@H](CC(=O)O)C(=O)N[C@@H](CCC(=O)O)C(=O)N[C@@H](CCCNC(=N)N)C(=O)N[C@@H](C)C(=O)N[C@@H](C)C(=O)N[C@@H](CCC(N)=O)C(=O)N[C@@H](CC(=O)O)C(=O)N[C@@H](Cc1ccccc1)C(=O)N[C@H](C(=O)N[C@@H](CCC(N)=O)C(=O)N[C@@H](Cc1c[nH]c2ccccc12)C(=O)N[C@@H](CC(C)C)C(=O)N[C@@H](CC(C)C)C(=O)N[C@@H](CC(=O)O)C(=O)N[C@@H](CC(C)C)C(=O)NCC(=O)N1CCC[C@H]1C(=O)N[C@@H](CO)C(=O)N[C@@H](CO)C(=O)NCC(=O)N[C@@H](C)C(=O)N1CCC[C@H]1C(=O)N1CCC[C@H]1C(=O)N1CCC[C@H]1C(=O)N[C@@H](CO)C(N)=O)C(C)C)C(=O)O [compound 153] (Ac-[dY]AQGTFTSDK([γGlu-Palmitoyl])SKYLDERAAQDFVQWLLDLGPSSGAPPPS-NH2),EC50,GIP receptor; [1],0.018 nM
same,EC50,GLP-1 receptor; [1],0.017 nM
same,EC50,glucagon receptor; [1],0.021 nM
CCCCCCCCCCCCCCCC(=O)N[C@@H](CCC(=O)NCCCC[C@H](NC(=O)[C@H](CC(=O)O)NC(=O)[C@H](CO)NC(=O)[C@@H](NC(=O)[C@H](Cc1ccccc1)NC(=O)[C@@H](NC(=O)CNC(=O)[C@H](CCC(N)=O)NC(=O)[C@H](C)NC(=O)CCc1c[nH]cn1)[C@@H](C)O)[C@@H](C)O)C(=O)N[C@@H](CO)C(=O)N[C@@H](CCCCN)C(=O)N[C@@H](Cc1ccc(O)cc1)C(=O)N[C@@H](CC(C)C)C(=O)N[C@@H](CC(=O)O)C(=O)N[C@@H](CCC(=O)O)C(=O)N[C@@H](CCCNC(=N)N)C(=O)N[C@@H](C)C(=O)N[C@@H](C)C(=O)N[C@@H](CCC(N)=O)C(=O)N[C@@H](CC(=O)O)C(=O)N[C@@H](Cc1ccccc1)C(=O)N[C@H](C(=O)N[C@@H](CCC(N)=O)C(=O)N[C@@H](Cc1c[nH]c2ccccc12)C(=O)N[C@@H](CC(C)C)C(=O)N[C@@H](CC(C)C)C(=O)N[C@@H](CCC(=O)O)C(=O)NCC(=O)NCC(=O)N1CCC[C@H]1C(=O)N[C@@H](CO)C(=O)N[C@@H](CO)C(=O)NCC(=O)N[C@@H](C)C(=O)N1CCC[C@H]1C(=O)N1CCC[C@H]1C(=O)N1CCC[C@H]1C(=O)N[C@@H](CO)C(N)=O)C(C)C)C(=O)O [compound 22] (Desaminohistidyl-AQGTFTSDK([γGlu-Palmitoyl])SKYLDERAAQDFVQWLLEGGPSSGAPPPS-NH2),EC50,GIP receptor; [2],0.041 nM
same,EC50,GLP-1 receptor; [2],0.003 nM
same,EC50,glucagon receptor; [2],0.017 nM
CCCCCCCCCCCCCCCC(=O)N[C@@H](CCC(=O)NCCCC[C@H](NC(=O)[C@H](CC(=O)O)NC(=O)[C@H](CO)NC(=O)[C@@H](NC(=O)[C@H](Cc1ccccc1)NC(=O)[C@@H](NC(=O)CNC(=O)[C@H](CCC(N)=O)NC(=O)CCNC(=O)[C@@H](N)Cc1c[nH]cn1)[C@@H](C)O)[C@@H](C)O)C(=O)N[C@@H](CO)C(=O)N[C@@H](CCCCN)C(=O)N[C@@H](Cc1ccc(O)cc1)C(=O)N[C@@H](CC(C)C)C(=O)N[C@@H](CC(=O)O)C(=O)N[C@@H](CCC(=O)O)C(=O)N[C@@H](CCCNC(=N)N)C(=O)N[C@@H](C)C(=O)N[C@@H](C)C(=O)N[C@@H](CCC(N)=O)C(=O)N[C@@H](CC(=O)O)C(=O)N[C@@H](Cc1ccccc1)C(=O)N[C@H](C(=O)N[C@@H](CCC(N)=O)C(=O)N[C@@H](Cc1c[nH]c2ccccc12)C(=O)N[C@@H](CC(C)C)C(=O)N[C@@H](CC(C)C)C(=O)N[C@@H](CCC(=O)O)C(=O)NCC(=O)NCC(=O)N1CCC[C@H]1C(=O)N[C@@H](CO)C(=O)N[C@@H](CO)C(=O)NCC(=O)N[C@@H](C)C(=O)N1CCC[C@H]1C(=O)N1CCC[C@H]1C(=O)N1CCC[C@H]1C(=O)N[C@@H](CO)C(N)=O)C(C)C)C(=O)O [compound 26] (H-H[βAla]QGTFTSDK([γGlu-Palmitoyl])SKYLDERAAQDFVQWLLEGGPSSGAPPPS-NH2),EC50,GIP receptor; [2],0.071 nM
same,EC50,GLP-1 receptor; [2],0.002 nM
same,EC50,glucagon receptor; [2],0.095 nM
CCCCCCCCCCCCCCCC(=O)N[C@@H](CCC(=O)NCCCC[C@H](NC(=O)[C@H](CC(=O)O)NC(=O)[C@H](CO)NC(=O)[C@@H](NC(=O)[C@H](Cc1ccccc1)NC(=O)[C@@H](NC(=O)CNC(=O)[C@H](CCC(=O)O)NC(=O)[C@H](C)NC(=O)[C@@H](Cc1ccc(O)cc1)NC(C)=O)[C@@H](C)O)[C@@H](C)O)C(=O)N[C@@H](CO)C(=O)N[C@@H](CCCCN)C(=O)N[C@@H](Cc1ccc(O)cc1)C(=O)N[C@@H](CC(C)C)C(=O)N[C@@H](CC(=O)O)C(=O)N[C@@H](CCC(=O)O)C(=O)N[C@@H](CCCNC(=N)N)C(=O)N[C@@H](C)C(=O)N[C@@H](C)C(=O)N[C@@H](CCC(N)=O)C(=O)N[C@@H](CC(=O)O)C(=O)N[C@@H](Cc1ccccc1)C(=O)N[C@H](C(=O)N[C@@H](CCC(N)=O)C(=O)N[C@@H](Cc1c[nH]c2ccccc12)C(=O)N[C@@H](CC(C)C)C(=O)N[C@@H](CC(C)C)C(=O)N[C@@H](CCC(=O)O)C(=O)N[C@@H](C)C(=O)NCC(=O)N1CCC[C@H]1C(=O)N[C@@H](CO)C(=O)N[C@@H](CO)C(=O)NCC(=O)N[C@@H](C)C(=O)N1CCC[C@H]1C(=O)N1CCC[C@H]1C(=O)N1CCC[C@H]1C(=O)N[C@@H](CO)C(N)=O)C(C)C)C(=O)O [compound 144] (Ac-[dY]AEGTFTSDK([γGlu-Palmitoyl])SKYLDERAAQDFVQWLLEAGPSSGAPPPS-NH2),EC50,GIP receptor; [3],0.003 nM
same,EC50,GLP-1 receptor; [3],0.017 nM
same,EC50,glucagon receptor; [3],1.3 nM
CCCCCCCCCCCCCCCC(=O)N[C@@H](CCC(=O)NCCCC[C@H](NC(=O)[C@H](CC(=O)O)NC(=O)[C@H](CO)NC(=O)[C@@H](NC(=O)[C@H](Cc1ccccc1)NC(=O)[C@@H](NC(=O)CNC(=O)[C@H](CCC(N)=O)NC(=O)[C@H](C)NC(=O)[C@@H](Cc1c[nH]cn1)NC(C)=O)[C@@H](C)O)[C@@H](C)O)C(=O)N[C@@H](CO)C(=O)N[C@@H](CCCCN)C(=O)N[C@@H](Cc1ccc(O)cc1)C(=O)N[C@@H](CC(C)C)C(=O)N[C@@H](CC(=O)O)C(=O)N[C@@H](CCC(=O)O)C(=O)N[C@@H](CCCNC(=N)N)C(=O)N[C@@H](C)C(=O)N[C@@H](C)C(=O)N[C@@H](CCC(N)=O)C(=O)N[C@@H](CC(=O)O)C(=O)N[C@@H](Cc1ccccc1)C(=O)N[C@H](C(=O)N[C@@H](CCC(N)=O)C(=O)N[C@@H](Cc1c[nH]c2ccccc12)C(=O)N[C@@H](CC(C)C)C(=O)N[C@@H](CC(C)C)C(=O)N[C@@H](CCC(=O)O)C(=O)N[C@@H](C)C(=O)NCC(=O)N1CCC[C@H]1C(=O)N[C@@H](CO)C(=O)N[C@@H](CO)C(=O)NCC(=O)N[C@@H](C)C(=O)N1CCC[C@H]1C(=O)N1CCC[C@H]1C(=O)N1CCC[C@H]1C(=O)N[C@@H](CO)C(N)=O)C(C)C)C(=O)O [compound 151] (Ac-[dH]AQGTFTSDK([γGlu-Palmitoyl])SKYLDERAAQDFVQWLLEAGPSSGAPPPS-NH2),EC50,GIP receptor; [3],0.014 nM
same,EC50,GLP-1 receptor; [3],0.002 nM
same,EC50,glucagon receptor; [3],0.003 nM
